Measurements taken from patent US7928107B2, “Quinazolines useful as modulators of ion channels” (Vertex Pharmaceuticals Incorporated, priority 2004, dated 2011).

The compounds below were run against NaV 1.8 channel (Homo sapiens, UniProt Q9Y5Y9) (assay: Activity against NaV 1.8 channel (optical membrane potential assay)).
Assay type: cell-based
Protocol: Compounds of the invention are useful as antagonists of voltage-gated sodium ion channels. Antagonist properties of test compounds were assessed as follows. Cells expressing the NaV of interest were placed into microtiter plates. After an incubation period, the cells were stained with fluorescent dyes sensitive to the transmembrane potential. The test compounds were added to the microtiter plate. The cells were stimulated with either a chemical or electrical means to evoke a NaV dependent membrane potential change from unblocked channels, which was detected and measured with trans-membrane potential-sensitive dyes. Antagonists were detected as a decreased membrane potential response to the stimulus. The optical membrane potential assay utilized voltage-sensitive FRET sensors described by Gonzalez and Tsien (See, Gonzalez, J. E. and R. Y. Tsien (1995) “Voltage sensing by fluorescence resonance energy transfer in single cells” Biophys J 69(4): 1272-80, and Gonzalez, J. E. and R. Y. Tsien (1997) “Improved indicators of cell membrane potential that use fluorescence resonance energy transfer” Chem Biol 4(4): 269-77) in combination with instrumentation for measuring fluorescence changes such as the Voltage/Ion Probe Reader (VIPR®) (See, Gonzalez, J. E., K. Oades, et al. (1999) “Cell-based assays and instrumentation for screening ion-channel targets” Drug Discov Today 4(9): 431-439).
24 hours before the assay on VIPR, CHO cells endogenously expressing a NaV1.2 type voltage-gated NaV are seeded in 96-well poly-lysine coated plates at 60,000 cells per well. Other subtypes are performed in an analogous mode in a cell line expressing the NaV of interest. • 1) On the day of the assay, medium is aspirated and cells are washed twice with 225 μL of Bath Solution #2 (BS#2). • 2) A 15 uM CC2-DMPE solution is prepared by mixing 5 mM coumarin stock solution with 10% Pluronic 127 1:1 and then dissolving the mix in the appropriate volume of BS#2. • 3) After bath solution is removed from the 96-well plates, the cells are loaded with 80 μL of the CC2-DMPE solution. Plates are incubated in the dark for 30 minutes at room temperature. • 4) While the cells are being stained with coumarin, a […] solution in BS#2 is prepared. In addition to DiSBAC2(3), this solution should contain 0.75 mM ABSCl and […] (prepared from 10 mM EtOH stock, Sigma #V-5754). • 5) After 30 minutes, CC2-DMPE is removed and the cells are washed twice with 225 μL of BS#2. As before, the residual volume should be 40 μL. • 6) Upon removing the bath, the cells are loaded with 80 μL of the DiSBAC2(3) solution, after which test compound, dissolved in DMSO, is added to achieve the desired test concentration to each well from the drug addition plate and mixed thoroughly. The volume in the well should be roughly 121 μL. The cells are then incubated for 20-30 minutes. • 7) Once the incubation is complete, the cells are ready to be assayed on VIPR® with a sodium add back protocol. 120 μL of Bath solution #1 is added to stimulate the NaV dependent depolarization. […] was used as an antagonist positive control for block of the NaV channel.
Data are analyzed and reported as normalized ratios of background-subtracted emission intensities measured in the 460 nm and 580 nm channels. Background intensities are then subtracted from each assay channel. Background intensities are obtained by measuring the emission intensities during the same time periods from identically treated assay wells in which there are no cells. The response as a function of time is then reported as the ratios obtained using the following formula: […]
The data is further reduced by calculating the initial (Ri) and final (Rf) ratios. These are the average ratio values during part or all of the pre-stimulation period, and during sample points during the stimulation period. The response to the stimulus R=Rf/Ri is then calculated. […]

Chain of NaV 1.8 channel (Q9Y5Y9 whole entry): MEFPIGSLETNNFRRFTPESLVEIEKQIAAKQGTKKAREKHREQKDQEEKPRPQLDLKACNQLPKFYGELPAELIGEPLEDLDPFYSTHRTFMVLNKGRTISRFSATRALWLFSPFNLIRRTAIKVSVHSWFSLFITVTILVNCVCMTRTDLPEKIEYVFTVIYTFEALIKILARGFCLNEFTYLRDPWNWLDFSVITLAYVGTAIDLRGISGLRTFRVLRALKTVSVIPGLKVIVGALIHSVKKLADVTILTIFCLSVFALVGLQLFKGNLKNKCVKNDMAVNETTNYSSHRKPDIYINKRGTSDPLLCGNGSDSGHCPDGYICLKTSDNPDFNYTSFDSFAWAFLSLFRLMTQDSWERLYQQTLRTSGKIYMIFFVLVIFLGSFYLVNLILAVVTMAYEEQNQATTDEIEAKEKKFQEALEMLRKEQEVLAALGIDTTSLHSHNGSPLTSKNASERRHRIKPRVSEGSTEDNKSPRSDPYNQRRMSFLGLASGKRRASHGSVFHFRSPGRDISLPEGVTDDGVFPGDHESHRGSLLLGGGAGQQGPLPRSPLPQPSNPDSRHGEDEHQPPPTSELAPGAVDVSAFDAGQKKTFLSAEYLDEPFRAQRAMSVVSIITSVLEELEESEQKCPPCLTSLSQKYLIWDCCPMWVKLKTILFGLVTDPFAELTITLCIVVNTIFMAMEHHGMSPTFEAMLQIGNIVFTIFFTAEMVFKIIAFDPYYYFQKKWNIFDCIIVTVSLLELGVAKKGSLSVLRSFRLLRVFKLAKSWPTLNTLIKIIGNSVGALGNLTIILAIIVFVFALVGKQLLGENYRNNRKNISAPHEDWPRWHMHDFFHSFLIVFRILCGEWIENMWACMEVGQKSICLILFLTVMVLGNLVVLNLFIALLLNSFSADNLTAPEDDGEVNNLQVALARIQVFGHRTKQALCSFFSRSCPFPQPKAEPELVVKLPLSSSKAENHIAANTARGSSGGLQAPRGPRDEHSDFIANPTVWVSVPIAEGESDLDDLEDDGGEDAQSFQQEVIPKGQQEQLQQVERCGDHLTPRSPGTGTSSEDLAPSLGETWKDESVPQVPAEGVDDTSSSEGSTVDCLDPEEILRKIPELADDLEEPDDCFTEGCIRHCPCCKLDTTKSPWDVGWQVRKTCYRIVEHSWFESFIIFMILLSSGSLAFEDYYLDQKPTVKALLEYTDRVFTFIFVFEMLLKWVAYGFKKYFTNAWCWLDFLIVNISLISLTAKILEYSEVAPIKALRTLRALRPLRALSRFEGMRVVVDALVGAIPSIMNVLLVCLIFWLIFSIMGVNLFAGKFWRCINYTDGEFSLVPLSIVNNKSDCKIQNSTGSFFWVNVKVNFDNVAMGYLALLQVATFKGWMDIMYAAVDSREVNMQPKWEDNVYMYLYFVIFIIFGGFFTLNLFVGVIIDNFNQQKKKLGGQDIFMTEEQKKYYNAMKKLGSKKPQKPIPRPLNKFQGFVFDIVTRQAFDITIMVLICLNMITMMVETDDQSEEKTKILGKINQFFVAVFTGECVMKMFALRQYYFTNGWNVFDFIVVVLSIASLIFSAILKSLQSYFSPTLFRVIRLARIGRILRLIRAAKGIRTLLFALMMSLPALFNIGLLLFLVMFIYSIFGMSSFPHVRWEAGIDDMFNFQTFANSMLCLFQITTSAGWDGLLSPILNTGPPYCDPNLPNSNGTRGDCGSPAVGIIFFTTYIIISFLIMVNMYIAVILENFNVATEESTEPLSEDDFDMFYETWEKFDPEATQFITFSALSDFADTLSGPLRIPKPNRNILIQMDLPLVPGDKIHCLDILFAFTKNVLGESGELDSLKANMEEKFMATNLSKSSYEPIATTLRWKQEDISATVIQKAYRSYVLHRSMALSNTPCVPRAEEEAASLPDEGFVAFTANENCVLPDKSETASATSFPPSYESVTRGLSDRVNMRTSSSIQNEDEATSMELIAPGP

Row | Structure (SMILES) | IC50 [µM]
1 | Cc1ccc2c(N3CC[C@@H](NC(=O)CCc4cccnc4)C3)nc(-c3ccccc3O)nc2c1 [Example 322, N—((R)-1-(2-(2-Hydroxyphenyl)-7-methylquinazolin-4-yl)pyrrolidin-3-yl)-3-(pyridin-3-yl)propanamide] | > 10
2 | Cc1ccc2c(N3CCN(C(=O)[C@H](O)CC(=O)O)CC3)nc(-c3ccccc3O)nc2c1 [Example 145, (R)-3-Hydroxy-4-(4-(2-(2-hydroxyphenyl)-7-methylquinazolin-4-yl)piperazin-1-yl)-4-oxobutanoic acid] | > 10
3 | Cc1ccc2c(N3CCN(C(=O)[C@@H](O)Cc4ccccc4)CC3)nc(-c3ccccc3O)nc2c1 [Example 131, (S)-2-Hydroxy-1-{4-[2-(2-hydroxy-phenyl)-7-methyl-quinazolin-4-yl]-piperazin-1-yl}-3-phenylpropan-1-one] | > 10
4 | O=C(NC[C@@H]1CCN(c2nc(-c3ccccc3O)nc3ccc(F)cc23)C1)C1CC1 [Example 357, N—(((S)-1-(6-Fluoro-2-(2-hydroxyphenyl)quinazolin-4-yl)pyrrolidin-3-yl)methyl)cyclopropanecarboxamide] | > 10
5 | Cc1ccc2c(N3CCC(CNC(=O)[C@H](O)C(C)C)CC3)nc(-c3ccccc3O)nc2c1 [Example 269] | > 10
6 | Cc1ccc2c(N3CCC(NC(=O)OCC4CCOC4)CC3)nc(-c3ccccc3O)nc2c1 (stereo not drawn) [Example 275] | 2 to 10
7 | Cc1ccc2c(N3CC[C@@H](NC(=O)c4ccncc4)C3)nc(-c3c(O)cccc3F)nc2c1 [Example 350, N—((R)-1-(2-(2-Fluoro-6-hydroxyphenyl)-7-methylquinazolin-4-yl)pyrrolidin-3-yl)isonicotinamide] | > 10
8 | CC(C)(C)COC(=O)NC[C@@H]1CCN(c2nc(-c3ccccc3O)nc3ccc(F)cc23)C1 [Example 375, Neopentyl ((S)-1-(6-fluoro-2-(2-hydroxyphenyl)quinazolin-4-yl)pyrrolidin-3-yl)methylcarbamate] | > 10

Next, values leading:

Row | IC50 [µM] | Structure (SMILES)
9 | 2 to 10 | Cc1ccc2c(N3CC[C@@H](NC(=O)CC4CCOCC4)C3)nc(-c3ccccc3O)nc2c1 [Example 317, 2-(Tetrahydro-2H-pyran-4-yl)-N—((R)-1-(2-(2-hydroxyphenyl)-7-methylquinazolin-4-yl)pyrrolidin-3-yl)acetamide]
10 | < 2 | Cc1ccc2c(N3CCN(C(=O)OCC(C)(C)C)CC3)nc(-c3ccccc3O)nc2c1 [Example 197]
11 | < 2 | Cc1ccc2c(N3CC[C@@H](CNC(=O)OCC(C)C)C3)nc(-c3ccccc3O)nc2c1 [Example 365, Isobutyl ((S)-1-(2-(2-hydroxyphenyl)-7-methylquinazolin-4-yl)pyrrolidin-3-yl)methylcarbamate]
12 | 2 to 10 | Cc1ccc2c(N3CC[C@@H](NC(=O)[C@H](O)CC(C)(C)C)C3)nc(-c3ccccc3O)nc2c1 [Example 361, (2R)-2-Hydroxy-N—((R)-1-(2-(2-Hydroxyphenyl)-7-methylquinazolin-4-yl)pyrrolidin-3-yl)-4,4-dimethylpentanamide]
13 | 2 to 10 | CC(C)C[C@@H](O)C(=O)N1CCN(c2nc(-c3ccccc3O)nc3ccc(C#N)cc23)CC1 [Example 142, 4-[4-((R)-2-Hydroxy-4-methyl-pentanoyl)-piperazin-1-yl]-2-(2-hydroxy-phenyl)-quinazoline-6-carbonitrile]
14 | 2 to 10 | Cc1ccc2c(N3CC[C@@H](NC(=O)O[C@H]4CCOC4)C3)nc(-c3ccccc3O)nc2c1 [Example 301, (S)-Tetrahydrofuran-3-yl (R)-1-(2-(2-hydroxyphenyl)-7-methylquinazolin-4-yl)pyrrolidin-3-ylcarbamate]
15 | 2 to 10 | Cc1ccc2c(N3CC[C@@H](NC(=O)c4ccccn4)C3)nc(-c3c(O)cccc3F)nc2c1 [Example 351, N—((R)-1-(2-(2-Fluoro-6-hydroxyphenyl)-7-methylquinazolin-4-yl)pyrrolidin-3-yl)picolinamide]
